According to patent US5420115A, “Method for the treatment of protoza infections with 2^1 -deoxy-2^1 -fluoropurine nucleosides” (priority 1992, dated 1995):
Where two headings read alike, the source gives them in different places.

Tests used:
Influenza A and B [1] = assay: microbe, parasite or virus in culture; format: cell-based, chick embryo cells; conditions: read-out: Anti-influenza Activity CE cells IC50
Influenza A and B [2] = format: in vivo, mouse; conditions: given as +(n), route and dose not specified
[3] = primary chick embryo (CE) cells, influenza strain not given

Structure (SMILES) | IC50 (Influenza A and B [1]; [3]) [nM] | Mouse log10 reduction in virus titre (Average of 5 Mice) (Influenza A and B [2]) [log10] | IC50 (Influenza A and B [1]; in Gallus gallus) [nM]
COc1nc(N)nc2c1ncn2[C@@H]1O[C@H](CO)[C@@H](O)[C@H]1F [Example 12, 2-Amino-9-(2-deoxy-2-fluoro-β-D-ribofuranosyl)-6-methoxy-9H-purine] | 400 | 1.9 | –
Nc1ncc2ncn([C@@H]3O[C@H](CO)[C@@H](O)[C@H]3F)c2n1 [Example 9, 2-Amino-9-(2-deoxy-2-fluoro-β-D-ribofuranosyl)-9H-purine] | – | 1.6 | –
Nc1ncnc2c1ncn2[C@@H]1O[C@H](CO)[C@@H](O)[C@H]1F [Example 8, 9-(2-Deoxy-2-fluoro-β-D-ribofuranosyl)adenine] | 4000 | 2.3 | –
Nc1nc2c(ncn2[C@@H]2O[C@H](CO)[C@@H](O)[C@H]2F)c(=O)[nH]1 [Example 7, 9-(2-Deoxy-2-fluoro-β-D-ribofuranosyl)guanine] | 800 to 2000 | 2.4 | –
Nc1nc(N)c2ncn([C@@H]3O[C@H](CO)[C@@H](O)[C@H]3F)c2n1 [Example 6, 2,6-Diamino-9-(2-deoxy-2-fluoro-β-D-ribofuranosyl)-9H-purine] | – | 2.1 | 600
